Experimental data as given in US6096512A, “Cloned DNA encoding a UDP-GalNAc: Polypeptide, N-acetylgalactosaminyltransferase” (Pharmacia & Upjohn Company, priority 1997, dated 2000).
Values joined by “and” are separate entries in the source; they are usually repeats but may differ in a detail not shown here. Identical values can stand only once. Residues, ends and D or L forms follow the SMILES beside them.

How the values were obtained:
[1] = target: T1, bovine colostrum GalNAc-transferase (Bos taurus, UniProt Q07537); test: Comparison of different synthetic peptides as acceptors (Biogel P-2 separation); type: biochemical
T1 sequence (Q07537 41-559): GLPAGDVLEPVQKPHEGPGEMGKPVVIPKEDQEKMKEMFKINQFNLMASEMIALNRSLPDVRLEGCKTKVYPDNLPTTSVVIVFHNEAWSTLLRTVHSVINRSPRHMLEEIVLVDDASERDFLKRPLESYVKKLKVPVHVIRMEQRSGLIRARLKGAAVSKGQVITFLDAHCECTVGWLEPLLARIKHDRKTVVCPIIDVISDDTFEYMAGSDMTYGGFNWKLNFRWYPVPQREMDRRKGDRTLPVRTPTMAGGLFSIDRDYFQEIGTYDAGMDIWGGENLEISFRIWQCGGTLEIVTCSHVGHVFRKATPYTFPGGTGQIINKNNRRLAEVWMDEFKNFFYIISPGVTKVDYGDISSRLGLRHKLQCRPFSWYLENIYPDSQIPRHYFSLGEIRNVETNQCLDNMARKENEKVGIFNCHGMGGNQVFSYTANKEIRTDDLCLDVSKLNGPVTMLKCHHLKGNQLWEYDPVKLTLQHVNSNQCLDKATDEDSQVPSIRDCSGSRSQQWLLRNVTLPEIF
Text: (§1) The t-Boc-amino acids and the PAM resin solid supports are supplied by ABI. The completed peptides are removed from the supporting resin, concurrently with the side chain-protecting groups, by a standard HF cleavage procedure using anisole as a cation scavenger (10% v/v). The crude peptides are purified by preparative reverse phase chromatography on a C18 Vydac column (2.5×30 cm) using a water/acetonitrile gradient, each phase containing 0.1% TFA.
The transfer of N-acetylgalactosamine to peptide acceptors is assayed by two different assays. […] For the determination of kinetic parameters the reaction mixture contains 50 mM Imidazole, pH 7.2, 10 mM MnCl2, 0.5% Triton X-100, 150 μM UDP-GalNAc, approximately 120,000 cpm of UDP-[1-^3 H]-GalNAc, varying concentrations of acceptor (see individual experiments) and approximately 5 mU of enzyme in a final volume of 40 μl; standard incubation time is 20 minutes. The reaction is terminated by placing the samples in a boiling water bath for 1.5 minutes. The reaction product (glycosylated peptide) is separated from unreacted UDP-GalNAc by chromatography on Dowex-2 columns (0.5 ml bed volume) equilibrated in water; the run-through fraction (2.5 ml) containing the glycosylated peptide is collected, supplemented with scintillation fluid and counted for radioactivity. For the determination of the low levels of transfer to serine, the assay conditions are as follows: 50 mM Imidazole, pH 7.2, 10 mM MnCl2, 0.5% Triton X-100, 150 μM UDP-GalNAc, approximately 260,000 cpm UDP-[^3 H]-GalNAc and 3.2 mM acceptor peptide (the concentration of RSPPP is 3.7 mM). […] Following incubation, the enzyme is inactivated by placing the samples on a boiling water bath for 1.5 minutes. The samples are then allowed to cool and the reaction products are separated from unreacted UDP-GalNAc and free GalNAc by chromatography on a Biogel P-2 column (1×50 cm) equilibrated in 7% isopropanol; thirty 1.3 ml fractions are collected.
Assays were done as described in Materials and Methods. The products
were separated by Biogel P-2 chromatography. Assay times were 20 […]

[2] = target: T1, bovine colostrum GalNAc-transferase; test: Determination of kinetic parameters for acceptor peptides; type: biochemical
Text: as §1
The transfer of N-acetylgalactosamine to peptide acceptors is assayed by two different assays. […] For the determination of kinetic parameters the reaction mixture contains 50 mM Imidazole, pH 7.2, 10 mM MnCl2, 0.5% Triton X-100, 150 μM UDP-GalNAc, approximately 120,000 cpm of UDP-[1-^3 H]-GalNAc, varying concentrations of acceptor (see individual experiments) and approximately 5 mU of enzyme in a final volume of 40 μl; standard incubation time is 20 minutes. The reaction is terminated by placing the samples in a boiling water bath for 1.5 minutes. The reaction product (glycosylated peptide) is separated from unreacted UDP-GalNAc by chromatography on Dowex-2 columns (0.5 ml bed volume) equilibrated in water; the run-through fraction (2.5 ml) containing the glycosylated peptide is collected, supplemented with scintillation fluid and counted for radioactivity. […]

[3] = test system: GalNAcTs (cloned soluble GalNAc-transferase); test: Transfer of N-acetylgalactosamine to synthetic acceptor peptides by soluble GalNAc-transferase, kinetic parameters; settings: read-out: Km for UDP-GalNAc
[4] = target: T1, bovine colostrum GalNAc-transferase; test: Transfer of N-acetylgalactosamine to protein acceptors by bovine colostrum GalNAc-transferase; type: biochemical; settings: for acceptor activity in words: native or reduced and carboxymethylated
Protocol: (§2) The standard assay for UDP-GalNAc:polypeptide, N-acetylgalactosaminyltransferase activity during purification contained the following components in a final volume of 80 μl: 50 mM Imidazole pH 7.2, 10 mM MnCl2, 0.5% Triton X-100, 15 μM UDP-GalNAc, UDP[1-^3 H-] GalNAc (27,000 cpm/assay), 0.15 mg/ml apomucin and varying amounts of enzyme (see individual experiments). The reaction mixture is incubated at 37° C. for 5-10 minutes (see individual experiments) and the reaction product is TCA precipitated and radioactivity measured as described. Assays for activity in lysates from Spodoptera frugiperda cell line 9 (hereinafter referred to as Sf9 cells) are carried out as described by Thomsen et al., (1990).
The above conclusions and the predictions of the specificity algorithm are validated experimentally by studying the ability of bovine colostrum GalNAc-transferase to transfer N-acetylgalactosamine to a variety of acceptors, both native proteins and synthetic acceptor peptides. The transfer of N-acetylgalactosamine to protein acceptors is assayed as described by Elhammer and Kornfeld, 1986, with minor modifications. The concentration of UDP-GalNAc is saturating in all assays; a Km of 8 μM is reported for bovine colostrum GalNAc-transferase (Elhammer and Kornfeld, 1986).
The transfer of N-acetylgalactosamine to protein acceptors was assayed
under standard conditions (see Material and Methods). The acceptor
concentration was 65 μM, the enzyme concentration approximately
65 mU/ml and assay time was 60 minutes. The transfer to both native and
reduced-carboxymethylated acceptors was assayed.

[5] = test system: GalNAc-transferase activity in Sf9 cells; test: Expression of baculovirus isolates of the GalNAc-transferase in Sf9 cells, GalNAcT activity; type: cell-based, Spodoptera frugiperda
Protocol: as §2
The putative GalNAcT coding region, pCR1000-91B, is digested with SstII and HindIII (both enzymes cut only in pCR1000 sequences that flank the insert; FIG. 2C) and these sites are blunted using T4 DNA polymerase so that it can be cloned into a baculovirus expression vector. BamHI linkers are then ligated onto the blunted ends and the resulting sample is ligated into the BamHI site of the baculovirus expression vector pAC373 (Summers and Smith, 1986). The resulting isolates are screened for proper orientation of the GalNAcT open reading frame with respect to the baculovirus polyhedron promoter, to yield pAC373-GalNAcT. […]

For `N=C(N)NCCC[C@H](N)C(=O)N[C@@H](CO)C(=O)N1CCC[C@H]1C(=O)N1CCC[C@H]1C(=O)N1CCC[C@H]1C(=O)O` [RSPPP, Arg-Ser-Pro-Pro-Pro] (H-RSPPP-OH), the “slower glycosylation than PPAdSSdSAPG” value ([1]; RSPPP vs PPAdSSdSAPG) was “three times slower than PPAdSSdSAPG”, the Relative rate ([1]; […]) was 1/751 and the Product formed ([1]; assay time 8 hours, 3.2 mM acceptor (RSPPP 3.7 mM)) was 0.67 nmol/min/mg.

With `C[C@@H](O)[C@H](NC(=O)[C@@H](N)CCCNC(=N)N)C(=O)N1CCC[C@H]1C(=O)N1CCC[C@H]1C(=O)N1CCC[C@H]1C(=O)O` [RTPPP, Arg-Thr-Pro-Pro-Pro] (H-RTPPP-OH) the Km ([2]; 20 minutes, mean, S.E. (n = 3)) was 3300 ± 600 µM and the “Vmax /Km” value ([2]; from Km and Vmax) was 183 M⁻¹ s⁻¹.

`CC(=O)N[C@H]1[C@@H](OP(=O)(O)OP(=O)(O)OC[C@H]2O[C@@H](n3ccc(=O)[nH]c3=O)[C@H](O)[C@@H]2O)O[C@H](CO)[C@H](O)[C@@H]1O` [UDP-GalNAc, UDP-N-acetylgalactosamine] was tested, and the Km [3] was ~1.7 µM and 1.7 µM.

“Bovine cytochrome C: contains one Ser and eight Thr residues but no predicted potential sites [reference compound]” was tested, and the “Product formed, native acceptor” value ([4]; acceptor 65 μM, enzyme approximately 65 mU/ml, 60 minutes, native) was less than 0.1 nmol/min/mg, the “Product formed, reduced and carboxymethylated acceptor” value ([4]; acceptor 65 μM, enzyme approximately 65 mU/ml, 60 minutes, myelin basic protein was not reduced and carboxymethylated) was less than 0.1 nmol/min/mg and the “acceptor activity in words” value ([4]; listed as bovine cytochrome C) was “is not an acceptor for the enzyme”. For the same molecule, the “acceptor activity in words” value ([4]; listed as cytochrome C) was “completely inactive as an acceptor”.

Molecule “CMW Pol-1: baculovirus containing an unrelated gene, human cytomegalovirus DNA polymerase gene [reference compound]” has a Specific activity ([5]; Sf9 cell lysates, 48 hours post infection) of 0.13 Units/mg protein and a Relative rate ([5]; relative to uninfected cells) of 0.8.
